Data as given in PubChem BioAssay AID248 (DTP/NCI, 2004).
“And” between values parts separate entries of the source, which are not always exact repeats. Identical values can stand only once. Toxic doses and inconclusive results are not listed. No stated cut-off is given here; in the data, active means T/C of 150% or more; inactive means T/C below 125%.

Tested on: L1210 leukemia ip in BDF1 mice, survival T/C
Assay: NCI In Vivo Anticancer Drug Screen. Data for tumor model L1210 Leukemia (intraperitoneal) in B6D2F1 (BDF1) mice
Settings: endpoint: mean survival time, higher = longer survival
In short: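 Tumor cells were implanted, animals were treated, and survival was followed. The result divides the treated measurement by the vehicle-control measurement.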

[1] = dose: 25.0 mg/kg/injection, schedule: Q01DX009 (ip), vehicle: Klucel (hydroxypropylcellulose) (HPC)
[2] = dose: 100.0 mg/kg/injection, schedule: Q04DX003 (ip), vehicle: Klucel (hydroxypropylcellulose) (HPC)
[3] = dose: 100.0 mg/kg/injection, schedule: Q04DX003 (ip), vehicle: saline with Tween-80
[4] = dose: 200.0 mg/kg/injection, schedule: Q04DX003 (ip), vehicle: saline with Tween-80
[5] = dose: 400.0 mg/kg/injection, schedule: Q04DX003 (ip), vehicle: saline with Tween-80
[6] = dose: 100.0 mg/kg/injection, schedule: Q01DX009 (ip), vehicle: Klucel (hydroxypropylcellulose) (HPC)
[7] = dose: 100.0 mg/kg/injection, schedule: Q04DX002 (ip), vehicle: Klucel (hydroxypropylcellulose) (HPC)
[8] = dose: 100.0 mg/kg/injection, schedule: Q01DX001 (ip), vehicle: saline
[9] = dose: 200.0 mg/kg/injection, schedule: Q04DX002 (ip), vehicle: Klucel (hydroxypropylcellulose) (HPC)
[10] = dose: 100.0 mg/kg/injection, schedule: Q01DX001 (ip), vehicle: carboxymethylcellulose (CMC)
[11] = dose: 200.0 mg/kg/injection, schedule: Q01DX001 (ip), vehicle: carboxymethylcellulose (CMC)
[12] = dose: 400.0 mg/kg/injection, schedule: Q01DX001 (ip), vehicle: carboxymethylcellulose (CMC)

Measured: T/C

CC(=O)Oc1c(OC(C)=O)c(C=O)c2c(OC(C)=O)c(-c3c(C)cc4c(C(C)C)c(OC(C)=O)c(OC(C)=O)c(C=O)c4c3OC(C)=O)c(C)cc2c1C(C)C
inactive: dose: 6.25 mg/kg/injection, schedule: Q01DX009 (ip), vehicle: Klucel (hydroxypropylcellulose) (HPC) 102 % of control | dose: 12.5 mg/kg/injection, schedule: Q01DX009 (ip), vehicle: Klucel (hydroxypropylcellulose) (HPC) 97 % of control | [1] 100 % of control and 105 % of control | dose: 25.0 mg/kg/injection, schedule: Q04DX003 (ip), vehicle: Klucel (hydroxypropylcellulose) (HPC) 93 % of control | dose: 50.0 mg/kg/injection, schedule: Q04DX003 (ip), vehicle: Klucel (hydroxypropylcellulose) (HPC) 90 % of control | [2] 95 % of control and 104 % of control

CC(NC(=O)OCc1ccccc1)C(=O)NC(CCC(=O)OCc1ccccc1)C(=O)OCc1ccccc1 (stereo unspecified)
inactive: [3] 93 % of control | [4] 92 % of control | [5] 92 % of control

COc1ccc(NC(=O)Oc2ccccc2C(N)=O)c(OC)c1
inactive: [1] 109 % of control | dose: 50.0 mg/kg/injection, schedule: Q01DX009 (ip), vehicle: Klucel (hydroxypropylcellulose) (HPC) 102 % of control | [6] 103 % of control and 112 % of control

CC1(C)C2=CCCC2CC/C1=N/NC(N)=O (stereo unspecified)
inactive: dose: 25.0 mg/kg/injection, schedule: Q04DX002 (ip), vehicle: Klucel (hydroxypropylcellulose) (HPC) 107 % of control | dose: 50.0 mg/kg/injection, schedule: Q04DX002 (ip), vehicle: Klucel (hydroxypropylcellulose) (HPC) 93 % of control | [7] 90 % of control

CC/C(C#N)=C(\C)C1CC1
inactive: dose: 9.5 mg/kg/injection, schedule: Q01DX001 (ip), vehicle: other 96 % of control | dose: 19.0 mg/kg/injection, schedule: Q01DX001 (ip), vehicle: other 96 % of control | dose: 38.0 mg/kg/injection, schedule: Q01DX001 (ip), vehicle: other 104 % of control

C/C(Cc1c[nH]c2ccccc12)=N/NC(N)=S
inactive: dose: 50.0 mg/kg/injection, schedule: Q01DX001 (ip), vehicle: saline 100 % of control | [8] 100 % of control

O=[N+]([O-])/C=C\c1cc(Cl)c(/C=C/[N+](=O)[O-])c(Cl)c1Cl
inactive: dose: 2.5 mg/kg/injection, schedule: Q01DX009 (ip), vehicle: saline 88 % of control | dose: 10.0 mg/kg/injection, schedule: Q01DX001 (ip), vehicle: acetone 89 % of control | dose: 10.0 mg/kg/injection, schedule: Q04DX003 (ip), vehicle: acetone 91 % of control | dose: 20.0 mg/kg/injection, schedule: Q01DX001 (ip), vehicle: acetone 94 % of control | dose: 20.0 mg/kg/injection, schedule: Q04DX003 (ip), vehicle: acetone 101 % of control

COc1cc(C)nc2ccc(Cc3ccc4nc(C)cc(OC)c4c3)cc12
inactive: [8] 94 % of control | dose: 200.0 mg/kg/injection, schedule: Q01DX001 (ip), vehicle: saline 93 % of control | dose: 400.0 mg/kg/injection, schedule: Q01DX001 (ip), vehicle: saline 96 % of control

CN(C)c1ccc(C#N)cc1
inactive: dose: 1.5 mg/kg/injection, schedule: Q04DX002 (ip), vehicle: Klucel (hydroxypropylcellulose) (HPC) 107 % of control | dose: 3.1 mg/kg/injection, schedule: Q04DX002 (ip), vehicle: Klucel (hydroxypropylcellulose) (HPC) 107 % of control | dose: 6.25 mg/kg/injection, schedule: Q04DX002 (ip), vehicle: Klucel (hydroxypropylcellulose) (HPC) 97 % of control and 111 % of control

COc1cc(C(=O)NC(=S)NCc2ccncc2)cc(OC)c1OC
inactive: [7] 96 % of control | [9] 88 % of control

[O-][N+](=Nc1ccc2c(c1)Cc1ccccc1-2)c1ccc2c(c1)Cc1ccccc1-2
inactive: [3] 96 % of control | [4] 92 % of control | [5] 91 % of control

CC(=O)OC1CCC2(C)C(C)CC3C(=O)OC32C1 (stereo unspecified)
inactive: dose: 100.0 mg/kg/injection, schedule: Q04DX003 (ip), vehicle: acetone 87 % of control | dose: 200.0 mg/kg/injection, schedule: Q04DX003 (ip), vehicle: acetone 90 % of control

CCOC(=O)N1Cc2cc3ccccc3nc2C1C1OC(CC)(C(=O)OCC)C1=O (stereo unspecified)
inactive: dose: 10.0 mg/kg/injection, schedule: Q07DX002 (ip), vehicle: alcohol 96 % of control | dose: 20.0 mg/kg/injection, schedule: Q07DX002 (ip), vehicle: alcohol 105 % of control | dose: 40.0 mg/kg/injection, schedule: Q07DX002 (ip), vehicle: alcohol 89 % of control | dose: 80.0 mg/kg/injection, schedule: Q07DX002 (ip), vehicle: alcohol 105 % of control

O=c1[nH]cc(CSC(=S)Nc2ccc(Cl)c(Cl)c2)c(=O)[nH]1
inactive: dose: 15.0 mg/kg/injection, schedule: Q04DX003 (ip), vehicle: saline with Tween-80 104 % of control | dose: 30.0 mg/kg/injection, schedule: Q04DX003 (ip), vehicle: saline with Tween-80 101 % of control | dose: 60.0 mg/kg/injection, schedule: Q04DX003 (ip), vehicle: saline with Tween-80 104 % of control

NC(N)=N/N=C/c1ccc(Cl)c([N+](=O)[O-])c1
inactive: dose: 6.0 mg/kg/injection, schedule: Q01DX Z (oral), vehicle: methylcellulose (MC) 93 % of control | dose: 15.0 mg/kg/injection, schedule: Q01DX Z (oral), vehicle: methylcellulose (MC) 115 % of control | dose: 30.0 mg/kg/injection, schedule: Q01DX Z (oral), vehicle: methylcellulose (MC) 109 % of control | dose: 120.0 mg/kg/injection, schedule: Q01DX Z (oral), vehicle: methylcellulose (MC) 96 % of control

ClCCN(CCCl)c1ccc(-c2csc(Cc3ccccc3)n2)cc1
inactive: [10] 93 % of control | [11] 92 % of control | [12] 93 % of control

BrC1CC/C=C\CCC1Br (stereo unspecified)
inactive: [6] 93 % of control | [2] 105 % of control | dose: 200.0 mg/kg/injection, schedule: Q01DX009 (ip), vehicle: Klucel (hydroxypropylcellulose) (HPC) 87 % of control | dose: 200.0 mg/kg/injection, schedule: Q04DX003 (ip), vehicle: Klucel (hydroxypropylcellulose) (HPC) 91 % of control | dose: 400.0 mg/kg/injection, schedule: Q01DX009 (ip), vehicle: Klucel (hydroxypropylcellulose) (HPC) 93 % of control | dose: 400.0 mg/kg/injection, schedule: Q04DX003 (ip), vehicle: Klucel (hydroxypropylcellulose) (HPC) 109 % of control

CC1(C)OCC(CO)O1 (stereo unspecified)
inactive: dose: 100.0 mg/kg/injection, schedule: Q01DX009 (ip), vehicle: saline with Tween-80 101 % of control | [3] 105 % of control | dose: 200.0 mg/kg/injection, schedule: Q01DX009 (ip), vehicle: saline with Tween-80 98 % of control | [4] 97 % of control | dose: 400.0 mg/kg/injection, schedule: Q01DX009 (ip), vehicle: saline with Tween-80 104 % of control | [5] 100 % of control

Cc1ccc(NC(=S)NCCO)cc1C
inactive: [3] 98 % of control | [4] 98 % of control | [5] 97 % of control

Cc1ccc(S(=O)(=O)N2CCCC(=O)c3ccccc32)cc1
inactive: [10] 107 % of control | [11] 100 % of control | [12] 102 % of control

CCN(CC)CCCCNc1ccc(NCCCCN(CC)CC)c2c1C(=O)c1ccccc1C2=O
inactive: dose: 25.0 mg/kg/injection, schedule: Q04DX002 (ip), vehicle: alcohol 106 % of control | dose: 50.0 mg/kg/injection, schedule: Q04DX002 (ip), vehicle: alcohol 95 % of control | dose: 100.0 mg/kg/injection, schedule: Q04DX002 (ip), vehicle: alcohol 92 % of control

Nc1ccc2c(c1)Cc1ccccc1-2
inactive: [3] 101 % of control | [4] 101 % of control

CC12CC3CC(C1)CC(C(=O)O)(C3)C2
inactive: dose: 100.0 mg/kg/injection, schedule: Q01DX009 (ip), vehicle: saline 110 % of control | dose: 100.0 mg/kg/injection, schedule: Q04DX003 (ip), vehicle: saline 97 % of control | dose: 200.0 mg/kg/injection, schedule: Q01DX009 (ip), vehicle: saline 100 % of control | dose: 200.0 mg/kg/injection, schedule: Q04DX003 (ip), vehicle: saline 97 % of control | dose: 400.0 mg/kg/injection, schedule: Q04DX003 (ip), vehicle: saline 101 % of control

CSc1ccc(OC(=O)Nc2cccc3ccccc23)cc1
inactive: [7] 96 % of control | [9] 104 % of control | dose: 400.0 mg/kg/injection, schedule: Q04DX002 (ip), vehicle: Klucel (hydroxypropylcellulose) (HPC) 101 % of control

Nc1ccc2c(c1)/C(=N/O)c1ccccc1-2
inactive: [10] 105 % of control | [11] 97 % of control | [12] 100 % of control
